Experiments:
[1] = test system: SMN2 minigene mRNA (SMN2-A minigene) in HEK293H cells; assay: SMN2 minigene mRNA splicing RT-qPCR assay in cultured cells; assay type: cell-based, human; conditions: Homo sapiens, HEK293-H; concentration increasing full length SMN2 mRNA 1.5-fold relative to vehicle-treated cells; HEK293H cells with SMN2-A minigene, 24 hours, 7-point concentration data; read-out: EC1.5x for production of full length SMN2 mRNA
How it was run: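 HEK293H cells stably carrying the SMN2-A minigene were treated for 24 h at 37 °C with a 7-point, 3.16-fold dilution series of compound. Multiplex RT-qPCR measured exon 7-containing minigene FL mRNA against GAPDH, expressed relative to vehicle by modified ΔΔCt; the EC1.5× is the concentration giving a 1.5-fold increase.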

[2] = test system: Smn protein in SMA patient fibroblast cells (GM03813); assay: Smn protein assay in cultured cells (SMN HTRF); assay type: cell-based, human; conditions: SMA patient fibroblast cells, 48 hours; for EC1.5x for Smn protein expression: 7-point concentration curve, SMN HTRF, concentration producing 1.5 times Smn protein vs DMSO vehicle control; for maximum fold (Fold) increase of Smn protein: 7-point concentration data, fold relative to vehicle control
How it was run: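 SMA patient fibroblasts (5,000 cells/well, DMEM-10% FBS) were treated for 48 h at 37 °C with a 7-point, 3.16-fold dilution series in triplicate. RIPA lysates were probed by HTRF (anti-SMN d2/kryptate, overnight, room temperature), reading 665/620 nm. EC1.5× is the concentration giving 1.5-fold Smn over DMSO vehicle.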

Compound	melting point [°C]	EC (1.5-fold increase) [1] [µM]	EC1.5x for Smn protein expression [2]	maximum fold (Fold) increase of Smn protein [2]
CCc1nc(C)cn2nc(-c3cc(=O)n4cc(C5=CC(C)(C)NC(C)(C)C5)ccc4n3)cc12 [Compound 745, 2-(4-ethyl-6-methylpyrazolo[1,5-a]pyrazin-2-yl)-7-(2,2,6,6-tetramethyl-1,2,3,6-tetrahydropyridin-4-yl)-4H-pyrido[1,2-a]pyrimidin-4-one]	255 to 258	< 0.1	**** (an EC1.5x≤0.3 μM is indicated by four stars (****))	***** (a fold increase >1.65 is indicated by five stars (*****))
Cc1cn2nc(-c3cc(=O)n4cc(N5C[C@H]6CNC[C@H]6C5)ccc4n3)cc2c(C)n1 [Compound 746, 2-(4,6-dimethylpyrazolo[1,5-a]pyrazin-2-yl)-7-[(3aR,6aS)-hexahydropyrrolo[3,4-c]pyrrol-2(1H)-yl]-4H-pyrido[1,2-a]pyrimidin-4-one]	239 to 242	< 0.1	**** (an EC1.5x≤0.3 μM is indicated by four stars (****))	***** (a fold increase >1.65 is indicated by five stars (*****))
CCc1nc(C)cn2nc(-c3cc(=O)n4cc(N5C[C@H]6CNC[C@H]6C5)ccc4n3)cc12 [Compound 747, 2-(4-ethyl-6-methylpyrazolo[1,5-a]pyrazin-2-yl)-7-[(3aR,6aS)-hexahydropyrrolo[3,4-c]pyrrol-2(1H)-yl]-4H-pyrido[1,2-a]pyrimidin-4-one]	246 to 249	< 0.1	**** (an EC1.5x≤0.3 μM is indicated by four stars (****))	***** (a fold increase >1.65 is indicated by five stars (*****))
CCc1nc(C)cn2cc(-c3cc(=O)n4cc(N5C[C@@H](C)N[C@@H](C)C5)ccc4n3)cc12 [Compound 748, 7-[(3R,5S)-3,5-dimethylpiperazin-1-yl]-2-(1-ethyl-3-methylpyrrolo[1,2-a]pyrazin-7-yl)-4H-pyrido[1,2-a]pyrimidin-4-one]	238 to 241	< 0.1	**** (an EC1.5x≤0.3 μM is indicated by four stars (****))	***** (a fold increase >1.65 is indicated by five stars (*****))
CCN1CCC(c2ccc3nc(-c4cc(C)c5nn(C)cc5c4)cc(=O)n3c2)CC1 [Compound 753, 2-(2,7-dimethyl-2H-indazol-5-yl)-7-(1-ethylpiperidin-4-yl)-4H-pyrido[1,2-a]pyrimidin-4-one]	162 to 164	< 0.1	**** (an EC1.5x≤0.3 μM is indicated by four stars (****))	***** (a fold increase >1.65 is indicated by five stars (*****))
Cc1cn2nc(-c3cc(=O)n4cc(N5CC(N(C)C)C5)ccc4n3)cc2c(C)n1 [Compound 757, 7-[3-(dimethylamino)azetidin-1-yl]-2-(4,6-dimethylpyrazolo[1,5-a]pyrazin-2-yl)-4H-pyrido[1,2-a]pyrimidin-4-one]	226 to 228	0.3 to 1	*** (an EC1.5× between >0.3 μM and ≤1 μM is indicated by three stars (***))	**** (a fold increase between >1.5 and ≤1.65 is indicated by four stars (****))
CCN(CC)C1CN(c2ccc3nc(-c4cc5c(C)nc(C)cn5n4)cc(=O)n3c2)C1 [Compound 758, 7-[3-(diethylamino)azetidin-1-yl]-2-(4,6-dimethylpyrazolo[1,5-a]pyrazin-2-yl)-4H-pyrido[1,2-a]pyrimidin-4-one]	231 to 233	0.3 to 1		*** (a fold increase between >1.35 and ≤1.5 is indicated by three stars (***))
Cc1cn2nc(-c3cc(=O)n4cc(N5CC(N6CCCC6)C5)ccc4n3)cc2c(C)n1 [Compound 759, 2-(4,6-dimethylpyrazolo[1,5-a]pyrazin-2-yl)-7-[3-(pyrrolidin-1-yl)azetidin-1-yl]-4H-pyrido[1,2-a]pyrimidin-4-one]	235 to 237	0.1 to 0.3	*** (an EC1.5× between >0.3 μM and ≤1 μM is indicated by three stars (***))	***** (a fold increase >1.65 is indicated by five stars (*****))
CCc1nc(C)cn2nc(-c3cc(=O)n4cc(N5CCCNCC5)ccc4n3)cc12 [Compound 760, 7-(1,4-diazepan-1-yl)-2-(4-ethyl-6-methylpyrazolo[1,5-a]pyrazin-2-yl)-4H-pyrido[1,2-a]pyrimidin-4-one]	212 to 214	< 0.1	**** (an EC1.5x≤0.3 μM is indicated by four stars (****))	***** (a fold increase >1.65 is indicated by five stars (*****))

Now from value to molecule, other results behind:

melting point [°C]	Compound	EC (1.5-fold increase) [1] [µM]	EC1.5x for Smn protein expression [2]	maximum fold (Fold) increase of Smn protein [2]
200 to 202	CCc1nc(C)cn2cc(-c3cc(=O)n4cc(N5CCCNCC5)ccc4n3)cc12 [Compound 749, 7-(1,4-diazepan-1-yl)-2-(1-ethyl-3-methylpyrrolo[1,2-a]pyrazin-7-yl)-4H-pyrido[1,2-a]pyrimidin-4-one]	< 0.1	**** (an EC1.5x≤0.3 μM is indicated by four stars (****))	***** (a fold increase >1.65 is indicated by five stars (*****))
308 to 310	Cc1cc(-c2cc(=O)n3cc(N4CCN[C@@H](C)C4)ccc3n2)cc2cn(C)nc12 [Compound 750, 2-(2,7-dimethyl-2H-indazol-5-yl)-7-[(3S)-3-methylpiperazin-1-yl]-4H-pyrido[1,2-a]pyrimidin-4-one]	< 0.1	**** (an EC1.5x≤0.3 μM is indicated by four stars (****))	***** (a fold increase >1.65 is indicated by five stars (*****))
202 to 204	Cc1cc(-c2cc(=O)n3cc(N4CCN(C)[C@@H](C)C4)ccc3n2)cc2cn(C)nc12 [Compound 751, 2-(2,7-dimethyl-2H-indazol-5-yl)-7-[(3S)-3,4-dimethylpiperazin-1-yl]-4H-pyrido[1,2-a]pyrimidin-4-one]	< 0.1	**** (an EC1.5x≤0.3 μM is indicated by four stars (****))	***** (a fold increase >1.65 is indicated by five stars (*****))
208 to 210	Cc1cc(-c2cc(=O)n3cc(C4CCN(C)CC4)ccc3n2)cc2cn(C)nc12 [Compound 752, 2-(2,7-dimethyl-2H-indazol-5-yl)-7-(1-methylpiperidin-4-yl)-4H-pyrido[1,2-a]pyrimidin-4-one]	< 0.1	**** (an EC1.5x≤0.3 μM is indicated by four stars (****))	***** (a fold increase >1.65 is indicated by five stars (*****))
233 to 243	Cc1cc(N2CCNCC2)cn2c(=O)cc(-c3ccc4nn(C)cc4c3)nc12 [Compound 754, 9-methyl-2-(2-methyl-2H-indazol-5-yl)-7-(piperazin-1-yl)-4H-pyrido[1,2-a]pyrimidin-4-one]	< 0.1	**** (an EC1.5x≤0.3 μM is indicated by four stars (****))	***** (a fold increase >1.65 is indicated by five stars (*****))
